The record followed here is ChEMBL document CHEMBL1201862, “PubChem BioAssay data set” (2004).

Test systems include SK-MEL-5; IGROV-1; HCT-116; NCI-H226; M14; UACC-257; Hs-578T; ACHN; HCC 2998; SW-620; SK-MEL-2; MDA-MB-435; HL-60; BT-549; RPMI-8226; HT-29; UO-31; SF-268; EKVX; SK-MEL-28.
Common to all, as to test: growth of human tumour cells (NCI), 48 h

Molecules are shown by their SMILES.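 Following 48 hours of exposure in 96-well plates, responses at five concentrations were used to interpolate endpoints linearly. GI50 marks 50% less growth.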 Active and inactive are the calls of the source. Rule as the data show it: active = GI50 up to about 1.1 µM and inactive = higher.

For the compound `Cc1cc(S(=O)(=O)Nc2nnc3cnc4ccccc4n23)c(S)cc1Cl`, the GI50 in the test with SK-MEL-5 is > 41.7 µM (inactive); with IGROV-1 it was > 100 µM (inactive); in the test on HCT-116, > 100 µM (inactive); in the test on NCI-H226, > 94.6 µM (inactive); in the test on M14 it was > 100 µM (inactive); with UACC-257 it was > 100 µM (inactive). In addition, the GI50 was 57.8 µM (inactive) in the test on Hs-578T; 6.73 µM (inactive) in the test on ACHN; > 100 µM (inactive) in the test on HCC 2998; > 100 µM (inactive) with SW-620; 97.1 µM (inactive) in the test on SK-MEL-2; > 100 µM (inactive) in the test with MDA-MB-435. In addition, the GI50 was > 100 µM (inactive) in the test with HL-60; > 88.5 µM (inactive) in the test with BT-549; > 100 µM (inactive) with RPMI-8226; > 100 µM (inactive) in the test with HT-29; 35.2 µM (inactive) in the test with UO-31; 98.6 µM (inactive) in the test on SF-268.

With `COc1cc2c3c(c1OC)C1(C=CC(=O)C=C1)CC3NCC2` (stereo unspecified), the GI50 in the test on SK-MEL-5, in the test on IGROV-1, in the test with HCT-116, in the test on NCI-H226, in the test with M14 and in the test on UACC-257 was > 100 µM (inactive) throughout. In addition, the GI50 in the test with Hs-578T, in the test on EKVX, in the test with ACHN, in the test on SK-MEL-28, in the test with HCC 2998 and in the test with SW-620 was > 100 µM (inactive) each time. Further, the GI50 in the test with SK-MEL-2 was > 100 µM (inactive); in the test with MDA-MB-435 it was > 100 µM (inactive); with HL-60, 32.6 µM (inactive); in the test with BT-549 it was > 100 µM (inactive); in the test with RPMI-8226, > 100 µM (inactive); in the test on HT-29, > 100 µM (inactive). Further, the GI50 in the test with SF-268 was > 100 µM (inactive).

As for `CC1NC(=O)c2c(-c3ccccc3)nn(-c3ccccc3)c2NC1=O` (stereo unspecified), the GI50 with SK-MEL-5, with IGROV-1, in the test on HCT-116, in the test with NCI-H226, in the test with M14 and in the test with UACC-257 was > 100 µM (inactive) in each case. The GI50 with Hs-578T, in the test on EKVX, with ACHN, in the test on SK-MEL-28, with HCC 2998 and in the test on SW-620 was > 100 µM (inactive) in each case. Moreover, the GI50 in the test on SK-MEL-2, in the test with MDA-MB-435, in the test with BT-549, in the test with RPMI-8226, with HT-29 and in the test with UO-31 was > 100 µM (inactive) in each case. Further, the GI50 in the test on SF-268 was > 100 µM (inactive).

For `C[C@]12CC/C(=N\OCCN3CCCC3)C=C1CCC1C2CC[C@@]2(C)C1CC[C@]2(C)O` (stereo partly specified), the GI50 is 14.8 µM (inactive) in the test with SK-MEL-5; 8.95 µM (inactive) in the test on IGROV-1; 5.16 µM (inactive) in the test with HCT-116; 2.9 µM (inactive) in the test on NCI-H226; 13.9 µM (inactive) in the test on M14; 5.6 µM (inactive) with UACC-257. The GI50 in the test with Hs-578T was 13.8 µM (inactive); with EKVX, 6.93 µM (inactive); in the test on ACHN, 11.1 µM (inactive); with HCC 2998, 11.8 µM (inactive); with SK-MEL-2, 16.4 µM (inactive); in the test with MDA-MB-435 it was 2.28 µM (inactive). For the same compound, the GI50 in the test on BT-549 was 10.2 µM (inactive); with RPMI-8226, 2.83 µM (inactive); in the test with HT-29 it was 1.25 µM (inactive); in the test on UO-31, 11.7 µM (inactive); in the test on SF-268, 13.3 µM (inactive).

For the compound `CN(CCNC(=O)c1nn(-c2ccccc2)c2c1Cc1ccccc1-2)CCNC(=O)c1nn(-c2ccccc2)c2c1Cc1ccccc1-2`, the GI50 in the test on SK-MEL-5 is 1.79 µM (inactive); in the test on IGROV-1 it was 1.67 µM (inactive); in the test on HCT-116 it was 1.65 µM (inactive); in the test on M14 it was 1.79 µM (inactive); in the test on UACC-257, 1.79 µM (inactive); with Hs-578T it was 1.87 µM (inactive). The GI50 in the test with EKVX was 4.44 µM (inactive); with ACHN, 1.74 µM (inactive); with SK-MEL-28, 1.69 µM (inactive); in the test on HCC 2998, 1.74 µM (inactive); with SW-620, 1.48 µM (inactive); with SK-MEL-2, 1.86 µM (inactive). Moreover, the GI50 is 1.61 µM (inactive) with MDA-MB-435; 1.32 µM (inactive) in the test on HL-60; 4.06 µM (inactive) with BT-549; 4.01 µM (inactive) in the test with RPMI-8226; 1.85 µM (inactive) in the test on HT-29; 1.63 µM (inactive) in the test with UO-31. Besides, the GI50 in the test with SF-268 is 2.02 µM (inactive).

In the case of `Nc1ccccc1-c1noc(=O)[nH]1`, the GI50 in the test with SK-MEL-5 is > 100 µM (inactive); in the test with IGROV-1, 60.4 µM (inactive); in the test with HCT-116 it was > 100 µM (inactive); in the test on NCI-H226, > 100 µM (inactive); in the test on M14, > 100 µM (inactive); in the test on UACC-257, > 100 µM (inactive). The GI50 in the test on Hs-578T, with EKVX, in the test on ACHN, with SK-MEL-28, with HCC 2998 and in the test on SW-620 was > 100 µM (inactive) each time. The GI50 in the test on SK-MEL-2, with MDA-MB-435, in the test on BT-549, in the test on RPMI-8226, in the test with HT-29 and with UO-31 was > 100 µM (inactive) each time. In the test with SF-268, the GI50 was > 100 µM (inactive).

As for `COC(=O)C(Cc1ccccc1)NS(=O)(=O)c1ccc(-c2c3nc(c(-c4ccc(S(=O)(=O)NC(Cc5ccccc5)C(=O)OC)cc4)c4ccc([nH]4)c(-c4ccc(S(=O)(=O)NC(Cc5ccccc5)C(=O)OC)cc4)c4nc(c(-c5ccc(S(=O)(=O)NC(Cc6ccccc6)C(=O)OC)cc5)c5ccc2[nH]5)C=C4)C=C3)cc1` (stereo unspecified), the GI50 in the test with SK-MEL-5 was > 100 µM (inactive); in the test with IGROV-1, > 100 µM (inactive); in the test on HCT-116, > 100 µM (inactive); with M14, > 100 µM (inactive); in the test with UACC-257, > 100 µM (inactive); in the test with Hs-578T, 17.1 µM (inactive). Also, the GI50 in the test with EKVX, in the test on ACHN, in the test on SK-MEL-28, with HCC 2998, with SW-620 and in the test with SK-MEL-2 was > 100 µM (inactive) throughout. Also, the GI50 in the test on MDA-MB-435, with HL-60, with BT-549, in the test on RPMI-8226, in the test on HT-29 and in the test with UO-31 was > 100 µM (inactive) in each case. Moreover, in the test on SF-268, the GI50 is > 100 µM (inactive).

On to `Nc1nc(Cl)cc(NCC2(CO)CC(=O)C2)n1`, for which the GI50 in the test with SK-MEL-5, in the test on IGROV-1, in the test with HCT-116, with NCI-H226, with UACC-257 and in the test on Hs-578T was > 100 µM (inactive) in each case. Also, the GI50 in the test on EKVX was 98.6 µM (inactive); in the test on ACHN, > 100 µM (inactive); in the test on SK-MEL-28, > 100 µM (inactive); in the test on HCC 2998 it was > 100 µM (inactive); in the test with SW-620, > 100 µM (inactive); in the test on SK-MEL-2, > 100 µM (inactive). Also, the GI50 with MDA-MB-435, in the test on HL-60, with BT-549, in the test with RPMI-8226, in the test with HT-29 and in the test with UO-31 was > 100 µM (inactive) in each case. Besides, the GI50 in the test with SF-268 is > 100 µM (inactive).

`CC(=O)O[C@H]1C(=O)[C@@]2(C)[C@H]([C@H](OC(=O)C3CCCCC3)[C@]3(O)C[C@H](OC(=O)[C@H](O)[C@@H](NC(=O)OC(C)(C)C)c4ccccc4)C(C)=C1C3(C)C)[C@]1(OC(C)=O)CO[C@@H]1C[C@@H]2O`: the GI50 is 0.0107 µM (active) with SK-MEL-5; 0.00348 µM (active) with IGROV-1; 0.00378 µM (active) in the test with HCT-116; 0.0236 µM (active) with NCI-H226; 0.00724 µM (active) in the test on M14; 0.0252 µM (active) with UACC-257. In addition, the GI50 in the test with Hs-578T was 0.00548 µM (active); in the test with EKVX, > 12.5 µM (inactive); with ACHN it was 0.413 µM (active); in the test on HCC 2998, 0.0299 µM (active); with SW-620, 0.00634 µM (active); with SK-MEL-2, 0.0803 µM (active). For the same compound, the GI50 in the test with MDA-MB-435 is 0.00226 µM (active); with HL-60 it was 0.00125 µM (active); in the test on BT-549, 0.0134 µM (active); in the test on RPMI-8226 it was 0.00457 µM (active); in the test with HT-29, 0.00335 µM (active); with UO-31, 0.849 µM (active). Besides, the GI50 in the test with SF-268 was 0.202 µM (active).

Regarding `Cc1cccc(-c2cc(O)c3ccc(C)nc3n2)c1`, the GI50 in the test on SK-MEL-5 was 0.0895 µM (active); in the test on IGROV-1, 0.601 µM (active); in the test on HCT-116, 0.297 µM (active); in the test on NCI-H226, 0.367 µM (active); with M14 it was 0.226 µM (active); with Hs-578T, 0.337 µM (active). Also, the GI50 in the test on ACHN was 0.711 µM (active); in the test on SK-MEL-28, 2.75 µM (inactive); in the test with HCC 2998, 1.07 µM (active); in the test on SW-620, 0.101 µM (active); in the test on SK-MEL-2, 0.421 µM (active); in the test on MDA-MB-435, 0.0294 µM (active). In addition, the GI50 with HL-60 was 0.0902 µM (active); in the test on BT-549 it was 0.435 µM (active); in the test on RPMI-8226, 0.43 µM (active); in the test on HT-29, 0.198 µM (active); in the test with UO-31, 3.77 µM (inactive); with SF-268, 0.723 µM (active).
